Data on three compounds can be found in patent publication US20240091385A1, “METHODS OF ASSESSING SELECTIVE GLUCOCORTICOID RECEPTOR MODULATION AND OF IDENTIFYING AND TREATING PATIENTS LIKELY TO BENEFIT FROM GLUCOCORTICOID RECEPTOR MODULATION” (Corcept Therapeutics Incorporated, priority 2022, published 2024).

The test system of experiment [1] is GR target genes in whole blood. The experiment in a line: Whole blood RNA fold change (NanoString 444-gene panel), randomized phase 2 ovarian cancer study NCT03776812. The note with it: ovarian phase 2 study, summary statement. Type of experiment: in vivo, human. The method, then: This phase 2, open-label, randomized, 3-arm study was performed in accordance with the principles of the Declaration of Helsinki, the Good Clinical Practice guidelines of the International Council on Harmonisation, and local regulatory requirements. The protocol was approved by the institutional review board or independent ethics committee at each investigative site. All patients or their legally authorized representatives provided written informed consent. […] Blood (2.5 mL) was drawn into a […] blood RNA tube (Qiagen) using a butterfly needle. The tube was sealed and gently inverted 10 times. The tube was frozen in dry ice and stored at -80° C. until RNA extraction. […] (Nanostring Technologies, Seattle WA, USA). […] For baseline only analyses, gene abundance is reported as normalized counts. Data were analyzed and adjusted P-values (with Benjamini-Yekutieli false discovery rate corrections) were determined in nSolver 4.0 (NanoString Technologies, Seattle, WA). Cross validated random forest techniques were used to derive a gene signature that could distinguish the relacorilant+nab-paclitaxel group from nab-paclitaxel alone ([…], Poland, Study WO5).

Another experiment relates to other hormone receptors. The note with it: cited from earlier work.
Another experiment relates to CLEC10A. In words: Whole blood CLEC10A RNA after prednisone in healthy volunteers (NCT03335956). Type of experiment: in vivo, human. The method, then:
This was a Phase 1 single-ascending dose (SAD) and multiple-ascending dose (MAD) study to assess the safety and pharmacological activity of exicorilant. Co-dosing of exicorilant with prednisone 25 mg, and comparison to the effects of prednisone alone, established the pharmacological activity of exicorilant. Only the specimens collected after dosing with prednisone alone were analyzed for the studies described below. Blood was collected in the morning prior to dosing in PAXgene RNA tubes. 4 hours after a dose of prednisone 25 mg, blood was drawn again. […] (Nanostring Technologies, Seattle WA, USA).

Take `Cn1cc(S(=O)(=O)N2CCC3=Cc4c(cnn4-c4ccc(F)cc4)C[C@]3(C(=O)c3cc(C(F)(F)F)ccn3)C2)cn1` [relacorilant, (R)-(1-(4-fluorophenyl)-6-((1-methyl-1H-pyrazol-4-yl)sulfonyl)-4,4a,5,6,7,8-hexahydro-1H-pyrazolo[3,4-g]isoquinolin-4a-yl)(4-(trifluoromethyl)pyridin-2-yl)methanone]: the “CLEC10A expression in whole blood” value in experiment [1] is given as “induced”. In the experiment with other hormone receptors, the “affinity for other hormone receptors” value is listed as “no affinity”.

Regarding `Cn1ncc(S(=O)(=O)N2CC[C@H]3Cc4c(cnn4-c4ccc(F)cc4)C[C@]3(C(=O)c3cc(C(F)(F)F)ccn3)C2)n1` [exicorilant, ((4aR,8aS)-1-(4-fluorophenyl)-6-((2-methyl-2H-1,2,3-triazol-4-yl)sulfonyl)-4,4a,5,6,7,8,8a,9-octahydro-1H-pyrazolo[3,4-g]isoquinolin-4a-yl)(4-(trifluoromethyl)pyridin-2-yl)methanone], the “affinity for other hormone receptors” value in the experiment with other hormone receptors was “no affinity”.

As for `C[C@]12C=CC(=O)C=C1CC[C@@H]1[C@@H]2C(=O)C[C@@]2(C)[C@H]1CC[C@]2(O)C(=O)CO` [prednisone], in the experiment on CLEC10A (4 hours after prednisone 25 mg, adj P=6.4×10^−8), the CLEC10A fold change is reported as 0.37. For the same compound, in the experiment with CLEC10A (prednisone 25 mg), the “CLEC10A expression in whole blood” value was “suppressed”.
